# ChEMBL document CHEMBL4052645, “Discovery of potent and efficacious pyrrolopyridazines as dual JAK1/3 inhibitors” (Bioorg Med Chem Lett, 2017)
# Columns and labels:
# [1] = system: Phosphatidylinositol 4,5-bisphosphate 3-kinase catalytic subunit alpha isoform (Homo sapiens), P42336 [C420R]; experiment: Inhibition of human partial length PI3KCA C420R mutant (R108 to N1068 residues) expressed in mammalian expression system assessed as residual activity at 50 nM by Kinomescan method relative to control
# [2] = target: 3-phosphoinositide-dependent protein kinase 1 (Homo sapiens) (UniProt O15530); experiment: Inhibition of wild-type human full length PDK1 (M1 to Q556 residues) expressed in bacterial expression system assessed as residual activity at 50 nM by Kinomescan method relative to control
# [3] = target: Mitogen-activated protein kinase kinase kinase 5 (Homo sapiens) (UniProt Q99683); experiment: Inhibition of wild-type human partial length MAP3K5 (E648 to S964 residues) expressed in bacterial expression system assessed as residual activity at 50 nM by Kinomescan method relative to control
# [4] = target: Rho-associated protein kinase 2 (Homo sapiens, UniProt O75116); experiment: Inhibition of human ROCK2 (M1 to T431 residues) expressed in mammalian expression system assessed as residual activity at 50 nM by KINOMEscan assay relative to control
# [5] = target: Dual specificity protein kinase CLK4 (Homo sapiens) (UniProt Q9HAZ1); experiment: Inhibition of wild-type human partial length CLK4 (R135 to K481 residues) expressed in bacterial expression system assessed as residual activity at 50 nM by Kinomescan method relative to control
# [6] = target: cAMP-dependent protein kinase catalytic subunit alpha (Homo sapiens) (UniProt P17612); experiment: Inhibition of wild-type human partial length PKACA (G10 to F351 residues) expressed in bacterial expression system assessed as residual activity at 50 nM by Kinomescan method relative to control
# [7] = target: Serine/threonine-protein kinase MARK2 (Homo sapiens) (UniProt Q7KZI7); experiment: Inhibition of wild-type human partial length MARK2 (M1 to R450 residues) expressed in bacterial expression system assessed as residual activity at 50 nM by Kinomescan method relative to control
# [8] = target: Protein kinase C delta type (Homo sapiens) (UniProt Q05655); experiment: Inhibition of human PKCD (Q328 to D676 residues) expressed in bacterial expression system assessed as residual activity at 50 nM by KINOMEscan assay relative to control
# [9] = target: Serine/threonine-protein kinase/endoribonuclease IRE1 (Homo sapiens) (UniProt O75460); experiment: Inhibition of wild-type human partial length IRE1 (S551 to E852 residues) expressed in mammalian expression system assessed as residual activity at 50 nM by Kinomescan method relative to control
# [10] = target: Serine/threonine-protein kinase Nek9 (Homo sapiens) (UniProt Q8TD19); experiment: Inhibition of wild-type human partial length NEK9 (P32 to R328 residues) expressed in bacterial expression system assessed as residual activity at 50 nM by Kinomescan method relative to control
# [11] = target: Mitogen-activated protein kinase 14 (Homo sapiens) (UniProt Q16539); experiment: Inhibition of wild-type human full length p38-alpha (M1 to S360 residues) expressed in bacterial expression system assessed as residual activity at 50 nM by Kinomescan method relative to control
# [12] = target: Serine/threonine-protein kinase pim-2 (Homo sapiens) (UniProt Q9P1W9); experiment: Inhibition of wild-type human partial length PIM2 (M1 to E291 residues) expressed in bacterial expression system assessed as residual activity at 50 nM by Kinomescan method relative to control
# [13] = target: Ephrin type-A receptor 8 (Homo sapiens) (UniProt P29322); experiment: Inhibition of wild-type human partial length EPHA8 (Q608 to C920 residues) expressed in bacterial expression system assessed as residual activity at 50 nM by Kinomescan method relative to control
# [14] = target: Wee1-like protein kinase 2 (Homo sapiens) (UniProt P0C1S8); experiment: Inhibition of wild-type human partial length WEE1B (M204 to K492 residues) expressed in bacterial expression system assessed as residual activity at 50 nM by Kinomescan method relative to control
# [15] = target: Ankyrin repeat and protein kinase domain-containing protein 1 (Homo sapiens) (UniProt Q8NFD2); experiment: Inhibition of wild-type human partial length SGK288 (M1 to A305 residues) expressed in mammalian expression system assessed as residual activity at 50 nM by Kinomescan method relative to control
# [16] = target: Activin receptor type-1B (Homo sapiens) (UniProt P36896); experiment: Inhibition of wild-type human ALK4 (S187 to I505 residues) expressed in bacterial expression system assessed as residual activity at 50 nM by Kinomescan method relative to control
# [17] = target: Vascular endothelial growth factor receptor 2 (Homo sapiens) (UniProt P35968); experiment: Inhibition of wild-type human partial length KDR (R787 to P1253 residues) expressed in mammalian expression system assessed as residual activity at 50 nM by Kinomescan method relative to control
# [18] = target: MAP/microtubule affinity-regulating kinase 3 (Homo sapiens) (UniProt P27448); experiment: Inhibition of wild-type human full length MARK3 (M1 to L729 residues) expressed in bacterial expression system assessed as residual activity at 50 nM by Kinomescan method relative to control
# [19] = target: Phosphatidylinositol 4,5-bisphosphate 3-kinase catalytic subunit alpha isoform (Homo sapiens) (UniProt P42336); experiment: Inhibition of wild-type human partial length PI3KCA (R108 to N1068 residues) expressed in mammalian expression system assessed as residual activity at 50 nM by Kinomescan method relative to control
# [20] = target: Epithelial discoidin domain-containing receptor 1 (Homo sapiens) (UniProt Q08345); experiment: Inhibition of wild-type human partial length DDR1 (R565 to V876 residues) expressed in bacterial expression system assessed as residual activity at 50 nM by Kinomescan method relative to control
# [21] = target: Mitogen-activated protein kinase kinase kinase 9 (Homo sapiens) (UniProt P80192); experiment: Inhibition of wild-type human partial length MLK1 (V88 to W426 residues) expressed in bacterial expression system assessed as residual activity at 50 nM by Kinomescan method relative to control
# [22] = target: Serine/threonine-protein kinase Nek6 (Homo sapiens) (UniProt Q9HC98); experiment: Inhibition of wild-type human full length NEK6 (M8 to T313 residues) expressed in bacterial expression system assessed as residual activity at 50 nM by Kinomescan method relative to control
# [23] = target: Homeodomain-interacting protein kinase 2 (Homo sapiens) (UniProt Q9H2X6); experiment: Inhibition of wild-type human partial length HIPK2 (M153 to S564 residues) expressed in mammalian expression system assessed as residual activity at 50 nM by Kinomescan method relative to control
# [24] = target: Serine/threonine-protein kinase BRSK2 (Homo sapiens) (UniProt Q8IWQ3); experiment: Inhibition of wild-type human full length BRSK2 (M1 to L674 residues) expressed in bacterial expression system assessed as residual activity at 50 nM by Kinomescan method relative to control
# [25] = target: Mitogen-activated protein kinase kinase kinase 20 (Homo sapiens) (UniProt Q9NYL2); experiment: Inhibition of wild-type human partial length ZAK (M1 to L331 residues) expressed in bacterial expression system assessed as residual activity at 50 nM by Kinomescan method relative to control
# Protein kinase C delta type (Homo sapiens), sequence (Q05655 whole entry, looked up, the tested form may be a part): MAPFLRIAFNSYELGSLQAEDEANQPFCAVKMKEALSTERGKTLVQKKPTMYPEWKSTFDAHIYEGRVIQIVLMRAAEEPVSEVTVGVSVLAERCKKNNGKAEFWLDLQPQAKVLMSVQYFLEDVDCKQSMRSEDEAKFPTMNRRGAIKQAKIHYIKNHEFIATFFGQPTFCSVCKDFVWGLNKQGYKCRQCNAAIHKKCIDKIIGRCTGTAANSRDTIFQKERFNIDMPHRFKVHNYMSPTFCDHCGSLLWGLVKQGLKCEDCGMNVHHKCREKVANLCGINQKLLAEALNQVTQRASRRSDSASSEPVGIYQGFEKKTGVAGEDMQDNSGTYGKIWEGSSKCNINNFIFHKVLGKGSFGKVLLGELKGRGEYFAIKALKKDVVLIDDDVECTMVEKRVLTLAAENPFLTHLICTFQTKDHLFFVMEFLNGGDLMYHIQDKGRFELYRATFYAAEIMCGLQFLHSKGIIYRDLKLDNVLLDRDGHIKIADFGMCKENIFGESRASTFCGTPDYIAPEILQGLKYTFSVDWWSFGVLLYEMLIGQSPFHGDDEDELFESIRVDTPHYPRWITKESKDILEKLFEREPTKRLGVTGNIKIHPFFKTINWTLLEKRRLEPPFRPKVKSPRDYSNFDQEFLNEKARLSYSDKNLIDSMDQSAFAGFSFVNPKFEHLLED
# Serine/threonine-protein kinase Nek6 (Homo sapiens), sequence (Q9HC98 whole entry, the tested form may be a part): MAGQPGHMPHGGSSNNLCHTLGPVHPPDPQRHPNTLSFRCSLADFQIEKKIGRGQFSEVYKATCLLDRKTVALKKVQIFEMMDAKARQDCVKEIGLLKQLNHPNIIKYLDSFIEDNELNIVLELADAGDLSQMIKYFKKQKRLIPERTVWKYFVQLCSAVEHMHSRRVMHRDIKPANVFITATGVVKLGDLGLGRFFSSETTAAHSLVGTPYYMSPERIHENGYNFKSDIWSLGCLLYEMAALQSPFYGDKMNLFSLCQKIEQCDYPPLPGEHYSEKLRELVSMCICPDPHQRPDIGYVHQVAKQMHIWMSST
# Mitogen-activated protein kinase 14 (Homo sapiens), sequence (Q16539 whole entry, the tested form may be a part): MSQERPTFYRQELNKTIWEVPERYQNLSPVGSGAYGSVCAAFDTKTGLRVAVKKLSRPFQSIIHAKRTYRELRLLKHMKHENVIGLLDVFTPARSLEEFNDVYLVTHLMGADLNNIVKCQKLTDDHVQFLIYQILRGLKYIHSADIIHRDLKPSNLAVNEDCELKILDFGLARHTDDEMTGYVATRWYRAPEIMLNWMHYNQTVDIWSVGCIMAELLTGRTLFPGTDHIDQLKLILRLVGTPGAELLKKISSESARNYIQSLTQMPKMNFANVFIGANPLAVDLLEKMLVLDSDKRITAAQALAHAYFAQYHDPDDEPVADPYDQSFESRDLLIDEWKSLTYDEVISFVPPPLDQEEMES
# Homeodomain-interacting protein kinase 2 (Homo sapiens), sequence (Q9H2X6 whole entry, looked up, the tested form may be a part): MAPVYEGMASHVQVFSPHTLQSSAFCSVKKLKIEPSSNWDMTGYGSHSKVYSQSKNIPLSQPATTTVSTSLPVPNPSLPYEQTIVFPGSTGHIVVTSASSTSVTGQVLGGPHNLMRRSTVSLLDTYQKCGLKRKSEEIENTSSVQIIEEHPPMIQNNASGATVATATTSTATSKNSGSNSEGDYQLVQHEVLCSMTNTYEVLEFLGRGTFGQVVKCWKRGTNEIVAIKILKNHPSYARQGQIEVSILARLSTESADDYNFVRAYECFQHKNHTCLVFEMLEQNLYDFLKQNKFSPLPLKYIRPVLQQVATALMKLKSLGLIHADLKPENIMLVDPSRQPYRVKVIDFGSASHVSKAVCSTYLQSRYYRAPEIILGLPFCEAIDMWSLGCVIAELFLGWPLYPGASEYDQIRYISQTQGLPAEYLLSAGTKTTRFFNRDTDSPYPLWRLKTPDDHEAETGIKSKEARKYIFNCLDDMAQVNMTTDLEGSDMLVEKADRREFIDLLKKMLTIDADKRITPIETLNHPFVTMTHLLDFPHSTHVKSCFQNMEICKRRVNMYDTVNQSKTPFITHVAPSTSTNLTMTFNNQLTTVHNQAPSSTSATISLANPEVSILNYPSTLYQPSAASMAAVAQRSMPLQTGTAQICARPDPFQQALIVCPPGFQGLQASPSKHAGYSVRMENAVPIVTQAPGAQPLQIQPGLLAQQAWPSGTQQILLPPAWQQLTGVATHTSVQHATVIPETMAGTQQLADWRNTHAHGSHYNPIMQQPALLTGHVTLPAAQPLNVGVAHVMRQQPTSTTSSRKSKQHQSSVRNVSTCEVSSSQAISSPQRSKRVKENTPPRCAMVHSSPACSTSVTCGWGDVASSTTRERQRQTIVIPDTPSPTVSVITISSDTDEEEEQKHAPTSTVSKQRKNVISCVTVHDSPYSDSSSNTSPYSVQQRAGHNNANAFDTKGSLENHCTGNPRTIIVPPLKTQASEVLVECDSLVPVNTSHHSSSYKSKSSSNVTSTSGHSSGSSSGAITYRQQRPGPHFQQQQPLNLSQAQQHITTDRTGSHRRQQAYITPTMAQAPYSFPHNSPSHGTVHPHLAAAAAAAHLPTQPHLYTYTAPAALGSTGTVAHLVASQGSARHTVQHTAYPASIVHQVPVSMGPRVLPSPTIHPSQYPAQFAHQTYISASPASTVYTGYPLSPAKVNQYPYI
# 3-phosphoinositide-dependent protein kinase 1 (Homo sapiens), sequence (O15530 whole entry, the tested form may be a part): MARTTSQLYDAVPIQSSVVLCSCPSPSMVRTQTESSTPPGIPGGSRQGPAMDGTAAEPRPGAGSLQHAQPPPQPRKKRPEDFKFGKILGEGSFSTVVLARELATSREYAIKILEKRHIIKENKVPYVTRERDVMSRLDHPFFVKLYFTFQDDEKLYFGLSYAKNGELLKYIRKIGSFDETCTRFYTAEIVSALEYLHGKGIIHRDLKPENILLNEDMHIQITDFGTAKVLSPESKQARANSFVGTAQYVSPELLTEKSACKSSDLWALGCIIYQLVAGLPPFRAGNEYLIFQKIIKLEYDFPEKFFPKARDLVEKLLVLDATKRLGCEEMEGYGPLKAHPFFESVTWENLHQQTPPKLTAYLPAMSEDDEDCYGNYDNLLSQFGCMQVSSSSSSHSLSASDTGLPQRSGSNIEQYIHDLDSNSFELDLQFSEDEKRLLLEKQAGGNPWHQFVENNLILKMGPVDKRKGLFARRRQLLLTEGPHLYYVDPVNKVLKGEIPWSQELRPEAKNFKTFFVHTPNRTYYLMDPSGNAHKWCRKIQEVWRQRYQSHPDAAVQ
# Mitogen-activated protein kinase kinase kinase 9 (Homo sapiens), sequence (P80192 whole entry, looked up, the tested form may be a part): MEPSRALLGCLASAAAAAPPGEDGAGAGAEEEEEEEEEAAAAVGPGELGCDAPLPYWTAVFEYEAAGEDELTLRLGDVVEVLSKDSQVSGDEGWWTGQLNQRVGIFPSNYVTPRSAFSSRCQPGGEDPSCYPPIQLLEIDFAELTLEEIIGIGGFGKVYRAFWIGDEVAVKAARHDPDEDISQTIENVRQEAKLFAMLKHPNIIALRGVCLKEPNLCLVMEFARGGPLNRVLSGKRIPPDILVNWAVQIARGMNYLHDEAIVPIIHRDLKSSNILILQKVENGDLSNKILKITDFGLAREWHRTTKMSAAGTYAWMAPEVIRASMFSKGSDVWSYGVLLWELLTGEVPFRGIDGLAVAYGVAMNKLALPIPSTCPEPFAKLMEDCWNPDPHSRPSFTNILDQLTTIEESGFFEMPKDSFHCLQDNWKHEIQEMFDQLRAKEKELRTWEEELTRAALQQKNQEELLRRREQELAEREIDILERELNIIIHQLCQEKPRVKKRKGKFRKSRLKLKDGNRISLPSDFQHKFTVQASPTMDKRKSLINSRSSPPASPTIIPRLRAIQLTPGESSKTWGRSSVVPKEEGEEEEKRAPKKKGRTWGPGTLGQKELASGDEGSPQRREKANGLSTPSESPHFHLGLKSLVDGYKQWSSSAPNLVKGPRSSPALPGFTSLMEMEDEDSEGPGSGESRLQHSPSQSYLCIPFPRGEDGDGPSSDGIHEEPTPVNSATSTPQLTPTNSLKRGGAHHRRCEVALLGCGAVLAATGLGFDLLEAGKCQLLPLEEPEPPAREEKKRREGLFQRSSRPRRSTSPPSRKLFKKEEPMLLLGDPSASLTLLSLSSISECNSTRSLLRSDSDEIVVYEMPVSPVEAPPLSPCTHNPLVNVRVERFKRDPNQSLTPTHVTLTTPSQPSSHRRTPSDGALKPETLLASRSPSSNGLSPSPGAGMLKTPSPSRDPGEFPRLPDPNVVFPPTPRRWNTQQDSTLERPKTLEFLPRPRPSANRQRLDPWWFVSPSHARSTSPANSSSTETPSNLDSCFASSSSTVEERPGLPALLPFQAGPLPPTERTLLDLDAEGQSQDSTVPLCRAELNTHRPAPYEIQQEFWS
# Activin receptor type-1B (Homo sapiens), sequence (P36896 whole entry, the tested form may be a part): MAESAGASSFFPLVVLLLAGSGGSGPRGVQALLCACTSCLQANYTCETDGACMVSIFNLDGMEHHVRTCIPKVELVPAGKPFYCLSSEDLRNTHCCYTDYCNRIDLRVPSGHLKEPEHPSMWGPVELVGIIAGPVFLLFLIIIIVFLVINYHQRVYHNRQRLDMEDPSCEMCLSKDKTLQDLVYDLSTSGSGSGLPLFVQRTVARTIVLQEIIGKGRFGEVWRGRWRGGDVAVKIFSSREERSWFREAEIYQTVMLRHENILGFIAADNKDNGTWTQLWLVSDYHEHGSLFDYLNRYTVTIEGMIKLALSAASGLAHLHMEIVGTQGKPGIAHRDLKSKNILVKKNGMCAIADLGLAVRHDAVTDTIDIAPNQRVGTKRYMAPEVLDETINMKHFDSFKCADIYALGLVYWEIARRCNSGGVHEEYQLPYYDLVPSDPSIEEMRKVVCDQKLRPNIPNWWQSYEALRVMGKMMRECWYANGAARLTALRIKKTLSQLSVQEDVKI
# Serine/threonine-protein kinase pim-2 (Homo sapiens), sequence (Q9P1W9 whole entry, looked up, the tested form may be a part): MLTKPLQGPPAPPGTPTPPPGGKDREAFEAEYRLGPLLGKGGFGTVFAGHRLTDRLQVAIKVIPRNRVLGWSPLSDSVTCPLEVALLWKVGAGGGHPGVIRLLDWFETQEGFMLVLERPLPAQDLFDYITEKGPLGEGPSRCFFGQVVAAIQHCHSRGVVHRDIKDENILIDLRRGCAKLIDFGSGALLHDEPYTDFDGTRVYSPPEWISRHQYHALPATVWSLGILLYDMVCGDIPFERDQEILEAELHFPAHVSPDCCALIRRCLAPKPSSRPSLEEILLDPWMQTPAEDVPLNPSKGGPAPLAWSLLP
Compound,Activity [1],Activity [2],Activity [3],Activity [4],Activity [5],Activity [6],Activity [7],Activity [8],Activity [9],Activity [10],Activity [11],Activity [12],Activity [13],Activity [14],Activity [15],Activity [16],Activity [17],Activity [18],Activity [19],Activity [20],also measured
CC1(C)[C@H](Nc2c(C(N)=O)cnn3cc(-c4ccccc4)cc23)CC[C@]1(C)N,100%,82%,100%,3.6%,100%,100%,64%,9.5%,90%,100%,94%,100%,100%,73%,100%,82%,100%,68%,100%,100%,Activity [21]: 78%; Activity [22]: 88%; Activity [23]: 97%; Activity [24]: 100%; Activity [25]: 96%
COc1ccc(-c2cc3c(N[C@@H]4CC[C@](C)(N)C4(C)C)c(C(N)=O)cnn3c2)cn1,100%,96%,100%,18%,100%,100%,98%,30%,90%,100%,100%,100%,100%,98%,100%,66%,88%,100%,100%,83%,Activity [21]: 90%; Activity [22]: 97%; Activity [23]: 100%; Activity [24]: 96%; Activity [25]: 91%
